{"source": "patent US7683052B2", "about": "“Crystalline polymorph of bazedoxifene acetate” (Wyeth, priority 2004, dated 2010)", "origin": "cited, not measured here", "key": {"[1]": {"tested_on": "ovariectomized rat", "conditions": "ovariectomized rat model of osteopenia"}, "[2]": {"tested_on": "MCF-7 cell line (human breast cancer cell line)", "conditions": "MCF-7 human breast cancer cell line"}, "[3]": {"tested_on": "uterine response", "conditions": "preclinical models of uterine stimulation"}}, "data": [{"compound": "Cc1c(-c2ccc(O)cc2)n(Cc2ccc(OCCN3CCCCCC3)cc2)c2ccc(O)cc12", "note": "[bazedoxifene acetate, 1-[4-(2-azepan-1-yl-ethoxy)-benzyl]-2-(4-hydroxy-phenyl)-3-methyl-1H-indol-5-ol acetic acid]", "values": [{"measurement": "Effect on bone loss and cholesterol", "setting": "[1]", "result": "estrogen agonist-like effect in preventing bone loss and reducing cholesterol"}, {"measurement": "Estrogen agonist/antagonist behaviour in MCF-7 cells", "setting": "[2]", "result": "behaves as an estrogen antagonist"}, {"measurement": "Stimulation of uterine response", "setting": "[3]", "result": "little or no stimulation of uterine response"}]}]}
